Results on 45 compounds are retold here after US8173635B2, “Kinase inhibitors” (Vertex Pharmaceuticals Incorporated, priority 2007, dated 2012).

Holding throughout (type): biochemical
One assay deals with PKC alpha kinase (Homo sapiens, UniProt P17252). In words: PKC alpha kinase inhibition, coupled-enzyme NADH absorbance assay (Ki). The following applies: 130 μM ATP, 4.5 nM PKC alpha, 30° C.; read-out: Ki PKC alpha.
For a further assay, the target named is PKC theta kinase (Homo sapiens, UniProt Q04759). Put plainly: PKC theta kinase inhibition, coupled-enzyme NADH absorbance assay (Ki). Conditions: 240 μM ATP, 18 nM PKC theta, 30° C.; read-out: Ki PKC theta. In outline: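 Enzyme and compound equilibrated 10 min at 30 °C before reaction in HEPES pH 7.5 buffer with MgCl2, NaCl, EDTA and Brij. Activity tracked as NADH loss at 340 nm through a coupled system. Initial-rate data fitted by non-linear regression to give Ki.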

The next assay has as its target PKC delta kinase (Homo sapiens, UniProt Q05655). In words: PKC delta kinase inhibition, coupled-enzyme NADH absorbance assay (Ki). The following applies: 150 μM ATP, 46 nM PKC delta, 30° C.; read-out: Ki PKC delta. An outline of the steps:
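Assay buffer was 100 mM HEPES pH 7.5, 10 mM MgCl2, 25 mM NaCl, 0.1 mM EDTA, 0.01% Brij. Enzyme buffer was equilibrated with compound in DMSO for 10 min at 30 °C. Ki values were derived by non-linear regression of initial rate data.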

Each structure is given as a SMILES string.

PKC theta kinase, sequence (Q04759 whole entry): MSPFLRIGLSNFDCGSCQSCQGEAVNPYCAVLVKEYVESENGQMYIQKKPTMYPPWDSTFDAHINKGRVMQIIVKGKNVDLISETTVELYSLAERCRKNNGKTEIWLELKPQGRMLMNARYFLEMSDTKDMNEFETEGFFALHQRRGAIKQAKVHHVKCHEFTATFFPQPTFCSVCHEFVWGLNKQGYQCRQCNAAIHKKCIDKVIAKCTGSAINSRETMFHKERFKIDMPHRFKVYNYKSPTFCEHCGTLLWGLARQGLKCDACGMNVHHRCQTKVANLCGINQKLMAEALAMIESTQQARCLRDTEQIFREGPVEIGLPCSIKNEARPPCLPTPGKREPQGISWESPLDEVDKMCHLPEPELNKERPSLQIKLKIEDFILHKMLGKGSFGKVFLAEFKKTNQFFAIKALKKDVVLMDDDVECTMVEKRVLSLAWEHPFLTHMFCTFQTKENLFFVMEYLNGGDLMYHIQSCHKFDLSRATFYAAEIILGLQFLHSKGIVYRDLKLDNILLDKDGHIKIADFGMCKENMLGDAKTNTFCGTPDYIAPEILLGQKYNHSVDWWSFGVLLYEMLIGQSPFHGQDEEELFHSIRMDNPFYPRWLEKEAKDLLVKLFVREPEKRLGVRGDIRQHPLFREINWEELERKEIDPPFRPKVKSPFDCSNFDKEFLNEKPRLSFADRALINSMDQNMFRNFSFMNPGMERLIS
PKC delta kinase, sequence (Q05655 whole entry): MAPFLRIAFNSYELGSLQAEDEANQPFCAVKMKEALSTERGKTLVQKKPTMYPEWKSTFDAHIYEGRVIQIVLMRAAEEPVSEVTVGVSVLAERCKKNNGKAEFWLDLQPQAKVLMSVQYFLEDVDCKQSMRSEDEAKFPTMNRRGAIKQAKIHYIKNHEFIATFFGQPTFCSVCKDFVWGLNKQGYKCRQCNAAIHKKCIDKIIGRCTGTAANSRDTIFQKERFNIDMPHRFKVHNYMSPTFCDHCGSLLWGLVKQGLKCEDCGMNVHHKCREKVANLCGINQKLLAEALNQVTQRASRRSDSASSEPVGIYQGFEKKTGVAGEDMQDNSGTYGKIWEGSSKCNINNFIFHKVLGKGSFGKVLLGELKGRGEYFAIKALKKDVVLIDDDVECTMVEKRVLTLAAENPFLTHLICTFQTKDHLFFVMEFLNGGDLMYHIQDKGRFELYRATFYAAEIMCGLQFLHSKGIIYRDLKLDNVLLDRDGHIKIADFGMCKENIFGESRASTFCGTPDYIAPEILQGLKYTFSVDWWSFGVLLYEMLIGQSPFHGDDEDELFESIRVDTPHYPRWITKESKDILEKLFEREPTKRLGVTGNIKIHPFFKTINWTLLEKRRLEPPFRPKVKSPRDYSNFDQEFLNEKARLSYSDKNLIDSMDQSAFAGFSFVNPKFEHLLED

As for `N#CCCc1cc(-c2ccnc3[nH]ncc23)cc(C2(C#N)CC2)c1` [Compound 240], the results for the Ki on PKC alpha kinase, at PKC theta kinase and on PKC delta kinase were > 1.2 µM, < 0.5 µM and > 2 µM, respectively.
As to `C=CC1(c2cccc(-c3ccnc4[nH]ncc34)c2)CCNC1` (stereo not drawn) [Compound 193, 4-(3-(3-Vinylpyrrolidin-3-yl)phenyl)-1H-pyrazolo[3,4-b]pyridine], the Ki at PKC alpha kinase, on PKC theta kinase and at PKC delta kinase was < 0.5 µM each time.
As for `N#CC(c1cccc(-c2ccnc3[nH]ncc23)c1)N1CCNCC1` (stereo not drawn) [Compound 321], the Ki was > 1.2 µM on PKC alpha kinase, < 0.5 µM on PKC theta kinase and > 1.2 µM on PKC delta kinase.
In the case of `CC#CCC(C)(CN)c1cc(C)cc(-c2ccnc3[nH]ncc23)c1` (stereo not drawn) [Compound 234], the Ki on PKC alpha kinase is < 0.5 µM; at PKC theta kinase it was < 0.05 µM; on PKC delta kinase it was < 0.05 µM.
With `COc1cc(-c2ccnc3[nH]ncc23)cc(C(C)(C)CN)c1` [Compound 142], the values for the Ki at PKC alpha kinase, at PKC theta kinase and on PKC delta kinase were < 2.8 µM, < 0.5 µM and < 2.8 µM, respectively.
Regarding `CCC(N)c1cccc(-c2ccnc3[nH]nc(C(F)(F)F)c23)c1` (stereo not drawn) [Compound 309], the Ki on PKC alpha kinase was < 2.8 µM; on PKC theta kinase it was < 0.05 µM; at PKC delta kinase, < 2.8 µM.
On to `CCC(C)(CC#N)c1cc(-c2ccnc3[nH]ncc23)cc(C(F)(F)CCC2CCCC2)c1` (stereo not drawn) [Compound 239], for which the Ki at PKC alpha kinase is > 1.2 µM; on PKC theta kinase, > 0.7 µM; on PKC delta kinase it was > 2 µM.
Regarding `N#CC1(c2cc(CCCN)cc(-c3ccnc4[nH]ncc34)c2)CC1` [Compound 301], the values for the Ki on PKC alpha kinase, at PKC theta kinase and at PKC delta kinase were < 2.8 µM, < 0.05 µM and < 0.5 µM, respectively.
The like results for `CCC(C)(CN)c1cccc(-c2ccnc3[nH]nc(C(F)(F)F)c23)c1` (stereo not drawn) [Compound 213, 2-methyl-2-(3-(3-(trifluoromethyl)-1H-pyrazolo[3,4-b]pyridin-4-yl)phenyl)butan-1-amine] were, in that order, < 0.05 µM, < 0.05 µM and < 0.05 µM.
Regarding `COc1ccc(CC(C)(CN)c2cccc(-c3ccnc4[nH]ncc34)c2)cc1` (stereo not drawn) [Compound 174], the Ki is < 0.5 µM at PKC alpha kinase, < 0.05 µM on PKC theta kinase and < 0.5 µM on PKC delta kinase.
In the case of `CCSc1cc(-c2ccnc3[nH]ncc23)cc(C(C)(C#N)CC)c1` (stereo not drawn) [Compound 102], the figures for the Ki at PKC alpha kinase, at PKC theta kinase and on PKC delta kinase were < 2.8 µM, < 0.5 µM and > 2 µM, respectively.
For the compound `CCC(F)c1cc(-c2ccnc3[nH]ncc23)cc(C(C)(C#N)CC)c1` (stereo not drawn) [Compound 106], the Ki on PKC alpha kinase is < 2.8 µM; at PKC theta kinase, < 0.5 µM; at PKC delta kinase it was > 2 µM.
In the same order, the values of `CCC(C)(C#N)c1cc(-c2ccnc3[nH]ncc23)cc(C(F)(F)CCC2CCCC2)c1` (stereo not drawn) [Compound 117] are > 1.2 µM, > 0.7 µM and > 2 µM.
Regarding `CNCC(F)(F)c1cc(-c2ccnc3[nH]ncc23)cc(C2(C#N)CC2)c1` [Compound 123], the Ki was < 2.8 µM on PKC alpha kinase, < 0.05 µM at PKC theta kinase and < 2.8 µM on PKC delta kinase.
Turning to `CC(O)c1cc(-c2ccnc3[nH]ncc23)cc(C(C)(C)C#N)c1` (stereo not drawn) [Compound 22], the results for the Ki at PKC alpha kinase, at PKC theta kinase and on PKC delta kinase were > 2.8 µM, < 0.5 µM and > 2.8 µM, respectively.
As to `Cc1cc(-c2ccnc3[nH]nc(C(F)(F)F)c23)cc(C2(CN)CCOCC2)c1` [Compound 275], the Ki on PKC alpha kinase is < 0.5 µM; on PKC theta kinase, < 0.05 µM; at PKC delta kinase, < 0.5 µM.
In the case of `NC(CCC1CCCC1)c1cccc(-c2ccnc3[nH]ncc23)c1` (stereo not drawn) [Compound 253], the results for the Ki at PKC alpha kinase, at PKC theta kinase and at PKC delta kinase were > 1.2 µM, > 0.7 µM and > 1.2 µM, respectively.
In the case of `N#CC1(c2cc(CC(N)=O)cc(-c3ccnc4[nH]nc(C(F)(F)F)c34)c2)CC1` [Compound 329], the Ki on PKC alpha kinase is > 1.2 µM; at PKC theta kinase, < 0.05 µM; on PKC delta kinase, > 1.2 µM.
With `CCCc1cc(-c2ccnc3[nH]ncc23)cc(C(C)(C)C#N)c1` [Compound 57], the Ki at PKC alpha kinase was < 2.8 µM; on PKC theta kinase it was < 0.05 µM; on PKC delta kinase, > 2.8 µM.
`CCC(C)(CN)c1cc(Cl)cc(-c2ccnc3[nH]ncc23)c1` (stereo not drawn) [Compound 133]: the Ki on PKC alpha kinase is < 0.5 µM; on PKC theta kinase, < 0.05 µM; on PKC delta kinase, < 0.5 µM.
For `CCC(C#N)c1cccc(-c2ccnc3[nH]ncc23)c1` (stereo not drawn) [Compound 66], the Ki at PKC alpha kinase is < 2.8 µM; at PKC theta kinase, < 0.5 µM; on PKC delta kinase it was < 2.8 µM.
As for `N#CC1(c2cccc(-c3ccnc4[nH]nc(C(F)(F)F)c34)c2)CCC1` [Compound 279], the values for the Ki on PKC alpha kinase, at PKC theta kinase and on PKC delta kinase were < 2.8 µM, < 0.05 µM and < 2.8 µM, respectively.
For the compound `CCC(C)(CN)c1cccc(-c2ccnc3[nH]ncc23)c1` (stereo not drawn) [Compound 41], the Ki on PKC alpha kinase is < 0.5 µM; at PKC theta kinase it was < 0.05 µM; at PKC delta kinase it was < 0.05 µM.
Turning to `CCCc1cc(-c2ccnc3[nH]ncc23)cc(C(C)(C)CN)c1` [Compound 42], the Ki on PKC alpha kinase is < 2.8 µM; at PKC theta kinase, < 0.5 µM; on PKC delta kinase, < 2.8 µM.
As for `C1=C(c2cccc(-c3ccnc4[nH]ncc34)c2)CNC1` [Compound 231], the Ki on PKC alpha kinase was < 2.8 µM; on PKC theta kinase, < 0.5 µM; on PKC delta kinase it was < 2.8 µM.
In the case of `N#CC1(c2cc(CCCN)cc(-c3ccnc4[nH]nc(C(F)(F)F)c34)c2)CC1` [Compound 283, 1-(3-(3-aminopropyl)-5-(3-(trifluoromethyl)-1H-pyrazolo[3,4-b]pyridin-4-yl)phenyl)cyclopropanecarbonitrile], the Ki is < 0.5 µM on PKC alpha kinase, < 0.05 µM on PKC theta kinase and < 2.8 µM on PKC delta kinase.
The like results for `NC(CC1CCCCC1)c1cccc(-c2ccnc3[nH]nc(C(F)(F)F)c23)c1` (stereo not drawn) [Compound 298] were, in that order, > 1.2 µM, > 0.7 µM and > 1.2 µM.
In the same order, the values of `N#CC1(c2cc(-c3ccnc4[nH]ncc34)cc(C(F)(F)C3CNC3)c2)CC1` [Compound 328] are < 2.8 µM, < 0.05 µM and < 2.8 µM.
In the case of `N#CC(c1cccc(-c2ccnc3[nH]ncc23)c1)N1CCOCC1` (stereo not drawn) [Compound 320], the Ki is > 1.2 µM at PKC alpha kinase, > 0.7 µM at PKC theta kinase and > 1.2 µM at PKC delta kinase.
Turning to `N#CC1(c2cccc(-c3ccnc4[nH]nc(Cl)c34)c2)CCC1` [Compound 259], the Ki on PKC alpha kinase was < 0.5 µM; at PKC theta kinase, < 0.05 µM; on PKC delta kinase it was < 0.5 µM.
Consider `CC(C)C(C)(CN)c1cccc(-c2ccnc3[nH]ncc23)c1` (stereo not drawn) [Compound 48], for which the Ki is < 0.5 µM at PKC alpha kinase, < 0.05 µM on PKC theta kinase and < 0.5 µM on PKC delta kinase.
For `CC(C)(C#N)c1cc(N)cc(-c2ccnc3[nH]ncc23)c1` [Compound 13], the Ki on PKC alpha kinase was < 2.8 µM; at PKC theta kinase, < 0.5 µM; at PKC delta kinase, < 2.8 µM.
Take `NCC1(c2cc(F)cc(-c3ccnc4[nH]nc(Cl)c34)c2)CCOCC1` [Compound 257]: the Ki was < 0.5 µM at PKC alpha kinase, < 0.05 µM on PKC theta kinase and < 0.5 µM at PKC delta kinase.
Regarding `CCC(C)(CN)c1cc(CCCOC)cc(-c2ccnc3[nH]ncc23)c1` (stereo not drawn) [Compound 164], the results for the Ki on PKC alpha kinase, on PKC theta kinase and at PKC delta kinase were < 0.5 µM, < 0.05 µM and < 2.8 µM, respectively.
Take `CC(C#N)(c1cccc(-c2ccnc3[nH]ncc23)c1)C1CCCC1` (stereo not drawn) [Compound 72]: the Ki on PKC alpha kinase is > 2.8 µM; on PKC theta kinase, < 2.8 µM; on PKC delta kinase, > 2.8 µM.
`CC(C#N)(Cc1ccccc1)c1cccc(-c2ccnc3[nH]ncc23)c1` (stereo not drawn) [Compound 100]: the Ki is > 0.39 µM on PKC alpha kinase, > 0.21 µM at PKC theta kinase and > 2.8 µM on PKC delta kinase.
The like results for `C#CCC(C)(C#N)c1cccc(-c2ccnc3[nH]ncc23)c1` (stereo not drawn) [Compound 91] were, in that order, < 0.5 µM, < 0.5 µM and < 2.8 µM.
Take `CCC(C)(C#N)c1cc(Cl)cc(-c2ccnc3[nH]ncc23)c1` (stereo not drawn) [Compound 87]: the Ki at PKC alpha kinase was < 2.8 µM; at PKC theta kinase, < 0.5 µM; on PKC delta kinase it was < 2.8 µM.
For `C#CC1(c2cc(C)cc(-c3ccnc4[nH]ncc34)c2)CNC(=O)O1` (stereo not drawn) [Compound 319], the Ki on PKC alpha kinase is < 0.5 µM; at PKC theta kinase it was < 0.05 µM; on PKC delta kinase, < 0.5 µM.
On to `C=CCc1cc(-c2ccnc3[nH]ncc23)cc(C(C)(C)CC#N)c1` [Compound 217], for which the Ki is > 1.2 µM on PKC alpha kinase, < 2.8 µM at PKC theta kinase and > 2 µM on PKC delta kinase.
`CCc1cc(-c2ccnc3[nH]nc(Cl)c23)cc(C(C)(CC)CN)c1` (stereo not drawn) [Compound 256]: the Ki on PKC alpha kinase is < 0.05 µM; on PKC theta kinase, < 0.05 µM; on PKC delta kinase, < 0.5 µM.
With `CC(CN)(CC1CC1)c1cccc(-c2ccnc3[nH]ncc23)c1` (stereo not drawn) [Compound 129], the Ki is < 0.5 µM at PKC alpha kinase, < 0.05 µM at PKC theta kinase and < 0.05 µM at PKC delta kinase.
For `CC/C=C\C1(c2cccc(-c3ccnc4[nH]ncc34)c2)CCNC1` (stereo not drawn) [Compound 198], the Ki on PKC alpha kinase is < 0.5 µM; at PKC theta kinase, < 0.05 µM; on PKC delta kinase, < 0.5 µM.
Take `FC(F)(F)c1n[nH]c2nccc(-c3cccc(C4(COCc5ccccc5)CC4)c3)c12` [Compound 289]: the figures for the Ki on PKC alpha kinase, on PKC theta kinase and at PKC delta kinase were > 1.2 µM, > 0.7 µM and > 2 µM, respectively.
In the same order, the values of `CCC(C)(CN)c1cc(-c2ccnc3[nH]ncc23)cc(C(F)F)c1` (stereo not drawn) [Compound 162] are < 0.5 µM, < 0.05 µM and < 0.5 µM.
